Patent US20230183218A1, “CONDENSED SUBSTITUTED HYDROPYRROLES AS ANTAGONISTS OF THE MUSCARINIC ACETYLCHOLINE RECEPTOR M4” (Vanderbilt University, priority 2020, published 2023)
Where two headings read alike, the source gives them in different places.

Legend:
locomotor activity = conditions: M4 knockout mice, but not the other four mAChR subtypes (M1-3,5); cited from earlier work
[1] = system: haloperidol-induced catalepsy; conditions: cited from earlier work
Human M4 = biological target: T1, Human M4 (Homo sapiens, UniProt P08173); assay: mAChR M4 cell-based functional assay (calcium flux, antagonist mode vs EC80 acetylcholine), human M4/Gqi5/CHO-K1 cells; conditions: for remaining activity at 30 µM: CHO-K1, % ACh maximum at 30 μM, human M4, read-out: Human M4 Emin (%); for IC50: decrease of response elicited by EC80 acetylcholine, human M4/Gqi5 CHO-K1 cells
T1 construct: expressed in transfected cells; host or cells: CHO-K1 (ATCC), stably co-expressing chimeric G protein Gqi5
T1 sequence (P08173 1-479): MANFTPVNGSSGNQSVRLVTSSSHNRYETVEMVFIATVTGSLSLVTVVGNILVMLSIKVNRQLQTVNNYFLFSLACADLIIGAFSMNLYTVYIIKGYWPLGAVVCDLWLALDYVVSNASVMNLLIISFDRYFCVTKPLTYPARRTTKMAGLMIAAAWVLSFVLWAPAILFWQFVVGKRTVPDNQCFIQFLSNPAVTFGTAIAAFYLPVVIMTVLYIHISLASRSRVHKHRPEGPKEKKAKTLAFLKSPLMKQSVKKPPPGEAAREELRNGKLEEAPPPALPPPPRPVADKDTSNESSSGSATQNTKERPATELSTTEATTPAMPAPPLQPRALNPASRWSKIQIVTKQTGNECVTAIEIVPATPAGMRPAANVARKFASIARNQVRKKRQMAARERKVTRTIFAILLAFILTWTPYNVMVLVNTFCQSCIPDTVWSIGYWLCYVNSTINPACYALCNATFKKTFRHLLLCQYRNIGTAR
Procedure, shortened: (§1)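 CHO-K1 cells stably expressing human or rat M4 with Gqi5, Fluo-4 loaded; calcium measured by fluorescence ratio on FDSS. Compound added, then EC20 acetylcholine at 143 s and EC80 at 268 s; IC50 from decrease of EC80 response, four-parameter logistic fit.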

Rat M4 = biological target: T2, Rat M4 (Rattus norvegicus, UniProt P08485); assay: mAChR M4 cell-based functional assay (calcium flux, antagonist mode vs EC80 acetylcholine), rat M4/Gqi5/CHO-K1 cells; conditions: for remaining activity at 30 µM: CHO-K1, % ACh maximum at 30 μM, rat M4, read-out: Rat M4 Emin (%); for IC50: decrease of response elicited by EC80 acetylcholine, rat M4/Gqi5 CHO-K1 cells
T2 construct: expressed in transfected cells; host or cells: CHO-K1 (ATCC), stably co-expressing chimeric G protein Gqi5
T2 sequence (P08485 1-478): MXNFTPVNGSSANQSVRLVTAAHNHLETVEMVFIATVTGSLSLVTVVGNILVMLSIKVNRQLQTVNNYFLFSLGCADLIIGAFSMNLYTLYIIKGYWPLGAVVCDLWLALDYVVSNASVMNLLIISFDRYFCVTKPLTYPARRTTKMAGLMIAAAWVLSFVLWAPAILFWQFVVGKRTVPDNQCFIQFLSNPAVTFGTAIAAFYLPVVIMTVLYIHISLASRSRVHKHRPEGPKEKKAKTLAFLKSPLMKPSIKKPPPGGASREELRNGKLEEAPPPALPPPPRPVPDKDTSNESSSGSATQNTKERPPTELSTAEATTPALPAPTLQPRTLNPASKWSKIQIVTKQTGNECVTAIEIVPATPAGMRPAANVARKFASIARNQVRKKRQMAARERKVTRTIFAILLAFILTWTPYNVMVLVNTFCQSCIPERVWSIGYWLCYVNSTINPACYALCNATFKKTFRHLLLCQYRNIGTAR
Procedure, shortened: as §1

SMILES	locomotor-activating effects (locomotor activity)	reversal of haloperidol-induced catalepsy ([1]; M4KO mice)	reversal of haloperidol-induced catalepsy ([1]; WT mice)	remaining activity at 30 µM (Human M4)	IC50 (Human M4)	remaining activity at 30 µM (Rat M4)	IC50 (Rat M4)
CN1[C@@H]2C[C@@H](OC(=O)[C@H](CO)c3ccccc3)C[C@H]1[C@@H]1O[C@@H]12 [scopolamine]	dramatically reduced	ineffective in reducing catalepsy	completely reversed	–	–	–	–
CC1(C)CCC(N2C[C@H]3C[C@H](Nc4ccc(-c5cc(F)ccc5Cl)nn4)C[C@H]3C2)CC1 [compound 68, (3aR,5s,6aS)-N-(6-(2-chloro-5-fluorophenyl)pyridazin-3-yl)-2-(4,4-dimethylcyclohexyl)octahydrocyclopenta[c]pyrrol-5-amine]	–	–	–	3%	0.00279 µM	2%	0.102 µM
O=S(=O)(c1ccc(N[C@H]2C[C@@H]3CN(Cc4ccccn4)C[C@@H]3C2)nn1)C1CCCCC1 [compound 33, (3aR,5s,6aS)-N-(6-(cyclohexylsulfonyl)pyridazin-3-yl)-2-(pyridin-2-ylmethyl)octahydrocyclopenta[c]pyrrol-5-amine]	–	–	–	5%	0.105 µM	14%	4.46 µM
O=S(=O)(c1ccc(N[C@H]2C[C@@H]3CN(CC4(O)CCOCC4)C[C@@H]3C2)nn1)C1CCCCC1 [compound 46, 4-(((3aR,5s,6aS)-5-((6-(cyclohexylsulfonyl)pyridazin-3-yl)amino)hexahydrocyclopenta[c]pyrrol-2(1H)-yl)methyl)tetrahydro-2H-pyran-4-ol]	–	–	–	9%	1.23 µM	27%	> 10 µM
O=C(c1ccc(N[C@H]2C[C@@H]3CN(CC4CCOCC4)C[C@@H]3C2)nn1)N1CCOCC1 [compound 6, morpholino(6-(((3aR,5s,6aS)-2-((tetrahydro-2H-pyran-4-yl)methyl)octahydrocyclopenta[c]pyrrol-5-yl)amino)pyridazin-3-yl)methanone]	–	–	–	21%	0.0117 µM	13%	7.43 µM
